Laboratory results as given in US8415307B1, “Antibiotic compositions for the treatment of gram negative infections” (priority 2010, dated 2013).
*1 amine or outer side, *2 acyl side, *3 side chain or, on linkers, in order; H or OH if unused. Where a SMILES comes first, the peptide text is derived from it. Bridges are numbered along the chain shown (N, C = ends). [ ]: non-standard residue; d: D form. The star is where a group is joined. ξ: configuration not given here. Thr(3ξ) = CC(O)[C@H](N)C(=O)O; NH(2-ClPh) = Clc1ccccc1N*; X1 = CC[C@H](C)CCCCC(=O)*; dDab = NCC[C@@H](N)C(=O)O; Dab = NCC[C@H](N)C(=O)O; CO = O=C([*:1])[*:2]; ξDab = NCCC(N)C(=O)O

Experiments:
P. aeruginosa 44 [1] = assay: Neutropenic mouse lung infection model; format: in vivo; conditions: mouse lung model, 8 through 20 mg/kg dose levels
Procedure: Compound of Formula (Ia) was tested in a murine thigh model. For the thigh model, female CD-1 mice were rendered neutropenic by IP injection on days −4 and −1 with 150 and 100 mg/kg cyclophosphamide, respectively. On day 0 mice were infected with 1×10^7 colony-forming units (cfu) of A. baumannii 1570 in one thigh muscle, and then administered compound SC in a dose ranging from 2 to 12 mg/kg at 1 and 6 hours post-infection.
The mouse lung model was run in the same manner as the thigh infection model, except that mice were infected IN with 1×10^7 cfu of P. aeruginosa 44 on day 0. Doses administered in the lung study ranged from 8 to 20 mg/kg. The ED−3log10 was based on cfu determination from the lung tissue 24 hours post-infection.

A. baumannii 1570 = assay: MIC against the primary screening panel (broth microdilution); format: cell-based; parameters: key: A: a MIC value measurement that is the same as that observed for polymyxin B; a MIC value measured that is lower than the comparable value observed for polymxin B; a MIC value measured that is higher than the comparable value observed for polymyxin B; conditions: class relative to polymyxin B
Procedure: (§1) Antibacterial potency can be assessed by broth microdilution according to CLSI guidelines, plates can be incubated at 37° C., and aeration (rotation at 200 rpm) can be employed. In some assays, surfactant (Survanta, Abbott Laboratories) can be added to give a final concentration of 1, 10 and 40% in caMHB. Native polymyxin A, polymyxin B and the comparator compound of Formula II (polymyxin B decapeptide with an o-chlorophenyl urea tail) were included for comparison.

K. pneumoniae 933 = assay: as above; format: cell-based; parameters: key: A: a MIC value measurement that is the same as that observed for polymyxin B; a MIC value measured that is lower than the comparable value observed for polymxin B; a MIC value measured that is higher than the comparable value observed for polymyxin B; conditions: class relative to polymyxin B
Procedure: as §1

P. aeruginosa 44 [2] = assay: as above; format: cell-based; parameters: key: A: a MIC value measurement that is the same as that observed for polymyxin B; a MIC value measured that is lower than the comparable value observed for polymxin B; a MIC value measured that is higher than the comparable value observed for polymyxin B; conditions: class relative to polymyxin B
Procedure: as §1

[3] = test system: K. pneumoniae 1800 (PMX-resistant); assay: as above; format: cell-based; parameters: key: A: a MIC value measurement that is the same as that observed for polymyxin B; a MIC value measured that is lower than the comparable value observed for polymxin B; a MIC value measured that is higher than the comparable value observed for polymyxin B; conditions: class relative to polymyxin B
Procedure: as §1

E. coli [4] = assay: MIC50 and MIC90, panel of Gram negative bacterial strains (CLSI broth microdilution); format: cell-based; parameters: key to E. coli MIC50 / E. coli MIC90: A: a measured MIC value equal to that of polymyxin B; a measured MIC value less than the corresponding MIC value measured for polymyxin B; a measured MIC value greater than the corresponding MIC value measured for polymyxin B; conditions: class relative to polymyxin B; some strains multi-drug resistant
Procedure: (§2) The potency and spectrum of Compound 5 was studied using a panel of Gram negative bacterial strains.
(§3) MIC testing can be performed according to Clinical and Laboratory Standards Institute (CLSI) M7-A7 (2006) broth microdilution methods. Unless otherwise indicated, MIC values are provided in units of micrograms per milliliter.
(§4) One day prior to testing, individual colonies were isolated by streaking onto rich, non-selective Tryptic Soy agar with 5% lysed sheeps blood (TSAB) with incubation at 35-37° C. for 18-24 hours.
(§5) Cultures were prepared by touching 3-5 colonies into 3 mL of cation-adjusted Mueller Hinton Broth (caMHB) in a 14-mL tube (caMHB was prepared and sterilized according to manufacturer's specifications).
(§6) OD600 of growing cultures was measured and adjusted to approximately 10^5 colony forming units per mL (CFU/mL) in caMHB for MIC inoculation (approximately OD600 0.001).
(§7) Diluted cultures were used to inoculate 50 μL per well in broth microdilution assays (final volume 100 μl per well; compounds were prepared in two-fold dilutions).
(§8) Plates were incubated 16-20 hours at 37° C., with shaking at 200 rpm.
(§9) OD600 was determined for all wells. Growth was defined as OD600>0.1. MICs were defined as the lowest concentration producing no visible turbidity (OD600<0.1).

A. baumannii = assay: MIC50-90 against small panels (n = 35); format: cell-based; parameters: key: A: a MIC value measurement that is the same as that observed for polymyxin B; a MIC value measured that is lower than the comparable value observed for polymxin B; a MIC value measured that is higher than the comparable value observed for polymyxin B; conditions: small panel n = 35; class relative to polymyxin B
Excerpt: (§10) MIC's refer to the concentration of each antimicrobial agent required to inhibit the growth of a bacterial isolate, as well as the corresponding concentrations required to inhibit 50% and 90% of each group of microorganisms tested [MIC50 and MIC90, respectively, consistent with definitions in the “Instructions to Authors” for Antimicrobial Agents and Chemotherapy (Antimicrobial Agents and Chemotherapy, January 2010, p. 1-23, Vol. 54, No. 1, incorporated herein by reference)]. When only up to nine isolates of a species are tested, MIC's are reported as the MIC range of each antimicrobial agent tested. MIC values provided as numerical ranges for testing of a single bacterial strain indicate the range of MIC values obtained in repeated tests of the indicated bacteria strain.
as §1

K. pneumoniae = assay: MIC50-90 against small panels (n = 35); format: cell-based; parameters: key: A: a MIC value measurement that is the same as that observed for polymyxin B; a MIC value measured that is lower than the comparable value observed for polymxin B; a MIC value measured that is higher than the comparable value observed for polymyxin B; conditions: small panel n = 35; class relative to polymyxin B
Excerpt: as §10, §1

E. coli [5] = assay: MIC50-90 against small panels (n = 35); format: cell-based; parameters: key: A: a MIC value measurement that is the same as that observed for polymyxin B; a MIC value measured that is lower than the comparable value observed for polymxin B; a MIC value measured that is higher than the comparable value observed for polymyxin B; conditions: small panel n = 35; class relative to polymyxin B
Excerpt: as §10, §1

P. aeruginosa = assay: MIC50-90 against small panels (n = 35); format: cell-based; parameters: key: A: a MIC value measurement that is the same as that observed for polymyxin B; a MIC value measured that is lower than the comparable value observed for polymxin B; a MIC value measured that is higher than the comparable value observed for polymyxin B; conditions: small panel n = 35; class relative to polymyxin B
Excerpt: as §10, §1

P. aeru = assay: MIC50 and MIC90, panel of Gram negative bacterial strains (CLSI broth microdilution); format: cell-based, P. Aeruginosa; parameters: key to P. aeru MIC50 / P. aeru MIC90: A: a measured MIC value equal to that of polymyxin B; a measured MIC value less than the corresponding MIC value measured for polymyxin B; a measured MIC value greater than the corresponding MIC value measured for polymyxin B; conditions: class relative to polymyxin B, some strains multi-drug resistant
Procedure: as §2, §3, §4, §5, §6, §7, §8, §9

A. baum = assay: as above; format: cell-based, A. baumanni; parameters: key to A. baum MIC50 / A. baum MIC90: A: a measured MIC value equal to that of polymyxin B; a measured MIC value less than the corresponding MIC value measured for polymyxin B; a measured MIC value greater than the corresponding MIC value measured for polymyxin B; conditions: class relative to polymyxin B; some strains multi-drug resistant
Procedure: as §2, §3, §4, §5, §6, §7, §8, §9

K. pneu = assay: as above; format: cell-based, K. pneumonia; parameters: key to K. pneu MIC50 / K. pneu MIC90: A: a measured MIC value equal to that of polymyxin B; a measured MIC value less than the corresponding MIC value measured for polymyxin B; a measured MIC value greater than the corresponding MIC value measured for polymyxin B; conditions: class relative to polymyxin B; some strains multi-drug resistant
Procedure: as §2, §3, §4, §5, §6, §7, §8, §9

P. aeruginosa #44 = assay: MICs for P. aeruginosa #44 in the presence of surfactant; format: cell-based; parameters: key: A: a MIC value measurement that is the same as that observed for polymyxin B; a MIC value measured that is lower than the comparable value observed for polymxin B; a MIC value measured that is higher than the comparable value observed for polymyxin B; conditions: class relative to polymyxin B; for MIC P. aeruginosa #44, 10% surfactant: 10% surfactant (Survanta) in caMHB; for MIC P. aeruginosa #44, 40% surfactant: 40% surfactant (Survanta) in caMHB
Procedure: as §1

[6] = Acute toxicity testing in rats; format: in vivo, Sprague-Dawley rat; conditions: IV dose of 1 mg/kg, similar experiment
Procedure: One female Sprague-Dawley rat was administered a 1 mg/kg dose of the test Compound 5. Clinical observations were taken immediately following the administration of compound and at 0.5, 1, 2 and 4 hours post-dose.

SMILES: CC(C)C[C@@H]1NC(=O)[C@@H](Cc2ccccc2)NC(=O)[C@H](CCN)NC(=O)C(NC(=O)[C@H](CCN)NC(=O)[C@@H](NC(=O)[C@H](CCN)NC(=O)Nc2ccccc2Cl)C(C)O)CCNC(=O)[C@H](C(C)O)NC(=O)[C@H](CCN)NC(=O)C(CCN)NC1=O (stereo partly shown) [Formula (II) comparator] ({NH(2-ClPh)-CO}-[Dab][Thr(3ξ)][Dab][ξDab][Dab][dF]L[ξDab][Dab][Thr(3ξ)]; lactam 4-C)
- Lungs cleared within one log10 of limit of detection (P. aeruginosa 44 [1]): not seen
- MIC A. baumannii 1570 (A. baumannii 1570): C
- MIC K. pneumoniae 933 (K. pneumoniae 933): C
- MIC P. aeruginosa 44 (P. aeruginosa 44 [2]): C
- MIC K. pneumoniae 1800 (PMX-resistant) [3]: C
- E. coli MIC50 (E. coli [4]): C
- E. coli MIC90 (E. coli [4]): C
- A. baumannii MIC50 (A. baumannii): C
- A. baumannii MIC90 (A. baumannii): C
- K. pneumoniae MIC50 (K. pneumoniae): C
- K. pneumoniae MIC90 (K. pneumoniae): C
- E. coli MIC50 (E. coli [5]): C
- E. coli MIC90 (E. coli [5]): C
- P. aeruginosa MIC50 (P. aeruginosa): B
- P. aeruginosa MIC90 (P. aeruginosa): A
- P. aeru MIC50 (P. aeru; listed as 2): B and A
- P. aeru MIC90 (P. aeru; listed as 2): A and C
- A. baum MIC50 (A. baum): C
- A. baum MIC90 (A. baum): C
- K. pneu MIC50 (K. pneu): C
- K. pneu MIC90 (K. pneu): C
- MIC P. aeruginosa #44, 0% surfactant (P. aeruginosa #44): C
- MIC P. aeruginosa #44, 10% surfactant (P. aeruginosa #44): B
- MIC P. aeruginosa #44, 40% surfactant (P. aeruginosa #44): A

SMILES: CC[C@H](C)CCCCC(=O)N[C@@H](CCN)C(=O)N[C@H](C(=O)N[C@H](CCN)C(=O)N[C@H]1CCNC(=O)[C@H]([C@@H](C)O)NC(=O)[C@H](CCN)NC(=O)[C@H](CCN)NC(=O)[C@H]([C@@H](C)O)NC(=O)[C@@H](CC(C)C)NC(=O)[C@H](CCN)NC1=O)[C@@H](C)O [Native Polymyxin A, Polymyxin A] (X1-[Dab]T[dDab][Dab][Dab][dL]T[Dab][Dab]T; lactam 4-C)
- Lungs cleared within one log10 of limit of detection (P. aeruginosa 44 [1]): not observed
- MIC A. baumannii 1570 (A. baumannii 1570): C
- MIC K. pneumoniae 933 (K. pneumoniae 933): B
- MIC P. aeruginosa 44 (P. aeruginosa 44 [2]): A
- MIC K. pneumoniae 1800 (PMX-resistant) [3]: C
- E. coli MIC50 (E. coli [4]): B
- E. coli MIC90 (E. coli [4]): A
- A. baumannii MIC50 (A. baumannii): A
- A. baumannii MIC90 (A. baumannii): A
- K. pneumoniae MIC50 (K. pneumoniae): C
- K. pneumoniae MIC90 (K. pneumoniae): C
- E. coli MIC50 (E. coli [5]): B
- E. coli MIC90 (E. coli [5]): A
- P. aeruginosa MIC50 (P. aeruginosa): A
- P. aeruginosa MIC90 (P. aeruginosa): C
- P. aeru MIC50 (P. aeru): A
- P. aeru MIC90 (P. aeru): C
- A. baum MIC50 (A. baum): A
- A. baum MIC90 (A. baum): A
- Clinical signs [6]: no clinical signs were observed
- K. pneu MIC50 (K. pneu): C
- K. pneu MIC90 (K. pneu): C
- MIC P. aeruginosa #44, 0% surfactant (P. aeruginosa #44): C
- MIC P. aeruginosa #44, 10% surfactant (P. aeruginosa #44): B
- MIC P. aeruginosa #44, 40% surfactant (P. aeruginosa #44): B
